What was measured:
[1] = tested on: Klebsiella pneumoniae; assay: Antimicrobial activity against Klebsiella pneumoniae; type: functional, organism-based
[2] = tested on: Stenotrophomonas maltophilia; assay: Antimicrobial activity against Stenotrophomonas maltophilia; type: functional, organism-based
[3] = tested on: Acinetobacter baumannii; assay: Antimicrobial activity against Acinetobacter baumannii; type: functional

Measured: MIC

COLISTIN
< 0.5 µg/mL: all assays above
